Measurements from patent US7579468B2, “Methods of modulating neurotrophin-mediated activity” (PainCeptor Pharma Corporation, priority 2005, dated 2009).
“Also recorded” adds a separate entry of the source.

Assays:
A875: p75 alone = experiment: 125I-NGF binding displacement in A875 cells; set-up: species or system human; conditions: A875 cells expressing p75; individual experiment
Procedure: All cells were incubated at 37° C. in 5% CO2. PC12 cells were maintained in RPMI-1640 medium supplemented with 10% fetal bovine serum (FBS). A875 human melanoma cells were maintained in DMEM with 10% FBS. HEK 293 cells were stably transfected with human TrkA plasmid (see below) and maintained in DMEM with 10% FBS and G418 (600 μg/mL) for selection.
NGF binding was evaluated using methods familiar to those who are skilled in the art. Briefly, cells expressing one or both NGF receptors (PC12: TrkA+p75; A875: p75 alone; HEK_TrkA: TrkA alone) were harvested by replacing the medium with calcium-magnesium free balanced salt (Grey's) solution and incubating at 37° C. for 15 min. For NGF binding, cells were resuspended at a concentration of 2×10^6 cells/mL in HEPES-Krebs-Ringer (HKR) buffer (10 mM HEPES; 125 mM NaCl; 4.8 mM KCl; 1.3 mM CaCl2; 1.2 mM MgSO4; 1.2 mM KH2PO4; 1 mg/ml BSA; 1 mg/ml glucose; pH 7.4) and exposed to ^125I-NGF (˜0.11 nM) in the presence or absence of varying concentrations of the compound. Non-specific binding was determined for reference by incubating ^125I-NGF with an excess of non-radioactive NGF in the absence of compound. Following a two-hour incubation period at 4° C., ^125I-NGF bound to the cells was quantified in a gamma radiation counter following separation from unbound NGF by filtration or centrifugation through glycerol (10% in HKR). Inhibition of binding was calculated as a percent of the specific binding (calculated as the differential between ^125I-NGF binding in the absence and presence of an excess of non-radioactive NGF without compound). Dose-response inhibition curves were typically generated with seven concentrations of a given compound, with three replicates for each concentration. For most compounds, multiple dose-response curves were generated.

[1] = tested on: NGF-induced Erk 1/2 phosphorylation in PC12 cells; experiment: Erk phosphorylation in NGF-stimulated PC12 cells (Western blot); format: cell-based, rat; conditions: 5 ng/mL NGF
Procedure: This assay is useful for establishing that the compounds of the invention are functional NGF antagonists, not receptor agonists (an agonist could conceivably block NGF binding but actually activate the receptor). Erk 1/2 is a kinase activated down stream of TrkA and is a well studied member of the NGF-induced signal transduction cascade.
PC12 cells expressing TrkA and p75 were acutely exposed to 5 ng/mL NGF (15 min; 37° C.; 5% CO2) that was pre-incubated (30 min; room temperature) with or without the compounds. Cells were lysed in Laemmli sample buffer (for SDS-PAGE) or a lysis buffer containing Triton X-100 (for ELISA). Following SDS-PAGE, proteins were electroblotted onto nitrocellulose and immunoprobed for phosphorylated Erk 1 and 2. Blocking and primary antibody incubations of immunoblots were performed in Tris-buffered saline-Tween (10 mM Tris, pH 8.0, 150 mM NaCl, and 0.2% Tween 20) supplemented with 5% (w/v) bovine serum albumin (BSA); secondary antibody incubations were performed in 5% (w/v) dried skim milk powder. Immunoreactive bands were detected by chemiluminescence.

Mice = experiment: Writhing Test (acetic acid abdominal contraction test); format: in vivo, mouse
Procedure: The acetic acid abdominal contraction test (Martinez et al., Pain 1999; 81: 179) was used to determine the efficacy of different compounds in a model of acute visceral chemical nociception. […] Compound or vehicle was administered (i.p. or s.c.) 15-45 minutes prior to the acetic acid injection. Each episode of writhing is characterized by a lengthwise stretching of the torso with a concomitant arching of the back.
Statistical analysis was performed using Prism™ 4.01 software package (GraphPad, San Diego, Calif., USA). The difference in response levels between treatment groups and control vehicle group was analyzed using an ANOVA followed by Bonferroni's method for post-hoc pair-wise comparisons. A p value <0.05 was considered to be significant.

Male Sprague-Dawley rats = experiment: Spared Nerve Injury (SNI) model of neuropathic pain; format: in vivo, rat; conditions: Von Frey filaments, 90 min post-treatment, Compound 11 3 and 10 mg/kg i.p., Compound 107 20 mg/kg i.p.
Excerpt: The Spared Nerve Injury (SNI) model (Decosterd et al., Pain 2000; 87: 149) was used to induce chronic neuropathic pain. Male Sprague-Dawley rats were anesthetized with isoflurane, and two of the three terminal branches of the sciatic nerve (tibial and common peroneal nerves) were transected, leaving the remaining sural nerve intact. Animals develop thermal and mechanical hyperalgesia and allodynia, as well as spontaneous pain or dysesthesia that last month after the nerve injury.
Mechanical allodynia testing: Pre- and post-injury baselines as well as post-treatment values (vehicle or compound-treated animals) for mechanical allodynia were evaluated using Von Frey filaments (Stoelting, Wood Dale, Ill., USA) with varying stiffness. […] The mean and standard error of the mean (SEM) were determined for each paw in each treatment group (ipsilateral/injured paw and contralateral/non-injured paw). […] Effects of compounds were evaluated two weeks after the injury. Compound or vehicle was administered (i.p. or s.c.) and effects on mechanical allodynia were measured at different time points after dosing (e.g., 30, 60 and 90 min.).
Data analysis: Statistical analyses were conducted using Prism™ 4.01 (GraphPad, San Diego, Calif., USA). Mechanical hypersensitivity of the injured paw was determined by comparing contralateral to ipsilateral paw values within the vehicle group at each time point. […]

CC(=O)Nc1cc2c3c(cc(NC(C)=O)cc3c1)C(=O)N(CCCC(=O)O)C2=O [Compound 11, 4-(5,8-Bis-acetylamino-1,3-dioxo-1H,3H-benzo[de]isoquinolin-2-yl)-butyric acid]
NGF binding displacement, dose-response curve (A875: p75 alone): effectively blocks NGF binding to cells expressing p75 | Inhibition of NGF-induced Erk 1/2 phosphorylation [1]: inhibits NGF-induced Erk 1/2 phosphorylation in PC12 cells | Number of abdominal contractions (writhing) (Mice; 15 mg/kg i.p., 30 minutes following acetic acid, vehicle 54±6): 28±4 | Antinociceptive effect in the Writhing Test (Mice; Compound 63 100 mg/kg i.p., Compound 11 15 mg/kg i.p., 10-20 minutes before acetic acid): significant antinociceptive effects | Effect on mechanical allodynia in the SNI model (Male Sprague-Dawley rats): significant dose-dependent reversal of the mechanical allodynia; also recorded: significant antinociceptive effects
